Laboratory results taken from ChEMBL document CHEMBL5528052, “Single Deletion Unmasks Hidden Anti-Gram-Negative Bacterial Activity of an Insect Defensin-Derived Peptide” (J Med Chem, 2024).
Active and inactive are the calls of the source. No cut-off for these calls is given here. Peptide text beside a SMILES is read from it.

Experiments:
Escherichia coli [1] = test: Antimicrobial activity against Escherichia coli J14b assessed as lethal concentration; assay type: functional
[2] = test system: Stenotrophomonas maltophilia; test: Antimicrobial activity against Stenotrophomonas maltophilia CGMCC 1.1788 assessed as lethal concentration; assay type: functional
Staphylococcus aureus [3] = test: Antimicrobial activity against methicillin-resistant Staphylococcus aureus P1374 assessed as lethal concentration; assay type: functional
Staphylococcus aureus [4] = test: Antimicrobial activity against methicillin-resistant Staphylococcus aureus P1386 assessed as lethal concentration; assay type: functional
Cell membrane [5] = test: Induction of cytoplasmic membrane disruption in Bacillus megaterium assessed as increase in fluorescence intensity by NPN uptake assay; assay type: cell membranes; settings: Priestia megaterium
Micrococcus luteus [6] = test: Antimicrobial activity against Micrococcus luteus in presence of NaCl; assay type: functional, organism-based
Pseudomonas aeruginosa [7] = test: Antimicrobial activity against Pseudomonas aeruginosa DH assessed as lethal concentration; assay type: functional
Pseudomonas aeruginosa [8] = test: Antimicrobial activity against Pseudomonas aeruginosa 11082603 assessed as lethal concentration; assay type: functional
Streptococcus mutans [9] = test: Antimicrobial activity against Streptococcus mutans ATCC 1.2499 at 1 nmol relative to control; assay type: functional, organism-based
Cell membrane [10] = test: Induction of membrane disruption in Staphylococcus epidermidis incubated for 90 mins by SEM analysis; assay type: cell membranes
Escherichia coli [11] = test: Antimicrobial activity against Escherichia coli G2b assessed as lethal concentration; assay type: functional
Escherichia coli [12] = test: Antimicrobial activity against Escherichia coli J23a assessed as lethal concentration; assay type: functional
Erythrocyte = test: Hemolytic activity in mouse erythrocytes assessed as hemolysis at 100 uM; assay type: toxicity, cell-based
[13] = Retention time of the compound by RP-HPLC analysis; assay type: physicochemical
Bacillus subtilis = test: Antimicrobial activity against Bacillus subtilis CGMCC 1.2428 assessed as lethal concentration; assay type: functional
[14] = Stability of compound in PBS at pH 7 measured after 3 days; assay type: physicochemical; settings: buffer, pH 7, 72 h; time 3 day
Salmonella enterica [15] = test: Antimicrobial activity against Salmonella enterica ATCC 14028 at 0.25 to 1 nmol; assay type: functional, organism-based; settings: dose 0.25-1 nmol
HEK293 = test: Cytotoxicity against HEK293 cells assessed as reduction in cell viability at 200 microg/ml incubated for 48 hrs by CCK-8 assay; assay type: toxicity, cell-based; settings: human, hek293, 48 h, dose 200 µg/ml
Streptococcus salivarius = test: Antimicrobial activity against Streptococcus salivarius ATCC 1.2498 assessed as lethal concentration; assay type: functional
Streptococcus mutans [16] = test: Antimicrobial activity against Streptococcus mutans ATCC 1.2499 assessed as lethal concentration; assay type: functional
Escherichia coli [17] = test: Antimicrobial activity against Escherichia coli J16c assessed as lethal concentration; assay type: functional
Curtobacterium luteum = test: Antimicrobial activity against Curtobacterium luteum assessed as lethal concentration; assay type: functional
[18] = Solubility of compound in water at 1 nmol by RP-HPLC analysis; assay type: physicochemical; settings: buffer
Pseudomonas aeruginosa [19] = test: Antimicrobial activity against Pseudomonas aeruginosa assessed as lethal concentration; assay type: functional
Pseudomonas aeruginosa [20] = test: Antimicrobial activity against Pseudomonas aeruginosa FRD1 assessed as lethal concentration; assay type: functional
Pseudomonas aeruginosa [21] = test: Antimicrobial activity against Pseudomonas aeruginosa QT1 assessed as lethal concentration; assay type: functional
[22] = Solubility of compound in guanidine hydrochloride at 1 mg/ml by RP-HPLC analysis; assay type: physicochemical
Micrococcus luteus [23] = test: Antimicrobial activity against Micrococcus luteus CGMCC 1.0290 assessed as lethal concentration; assay type: functional
Alcaligenes faecalis = test: Antimicrobial activity against Alcaligenes faecalis CGMCC 1.1837 assessed as lethal concentration; assay type: functional
Staphylococcus warneri = test: Antimicrobial activity against Staphylococcus warneri ATCC 1.2824 assessed as lethal concentration; assay type: functional
Staphylococcus aureus [24] = test: Antimicrobial activity against penicillin-resistant Staphylococcus aureus P1383 assessed as lethal concentration; assay type: functional
Cell membrane [25] = test: Disruption of outer membrane integrity in […] by NPN uptake assay; assay type: cell membranes
Staphylococcus [26] = test: Antimicrobial activity against methicillin-resistant coagulase negative Staphylococcus P1369 at 0.25 to 1 nmol; assay type: functional, organism-based; settings: dose 0.25-1 nmol
Komagataella pastoris = test: Antifungal activity against Pichia pastoris X33 assessed as lethal concentration; assay type: functional
Geotrichum candidum = test: Antifungal activity against Geotrichum candidum CCTCC AY 93038 assessed as lethal concentration; assay type: functional
Pseudomonas aeruginosa [27] = test: Antimicrobial activity against Pseudomonas aeruginosa 374 assessed as lethal concentration; assay type: functional
[28] = test system: Lysinibacillus fusiformis; test: Antimicrobial activity against Lysinibacillus fusiformis assessed as lethal concentration; assay type: functional
Pseudomonas aeruginosa [29] = test: Antimicrobial activity against Pseudomonas aeruginosa O1 assessed as lethal concentration; assay type: functional
Escherichia coli [30] = test: Antimicrobial activity against Escherichia coli J45b assessed as lethal concentration; assay type: functional
Salmonella enterica [31] = test: Antimicrobial activity against Salmonella enterica ATCC 14028 assessed as lethal concentration; assay type: functional
Cell membrane [32] = test: Induction of membrane disruption in Staphylococcus epidermidis incubated for 30 mins by transmission electron microscopic analysis; assay type: cell membranes
Micrococcus luteus [33] = test: Antimicrobial activity against Micrococcus luteus in presence of human serum; assay type: functional, organism-based
Pseudomonas aeruginosa [34] = test: Antimicrobial activity against Pseudomonas aeruginosa 11092304 assessed as lethal concentration; assay type: functional
Staphylococcus aureus [35] = test: Antimicrobial activity against Staphylococcus aureus J685 assessed as lethal concentration; assay type: functional
Pseudomonas aeruginosa [36] = test: Antimicrobial activity against Pseudomonas aeruginosa 11082616 assessed as lethal concentration; assay type: functional
Pseudomonas aeruginosa [37] = test: Antimicrobial activity against Pseudomonas aeruginosa 11092618 assessed as lethal concentration; assay type: functional
Staphylococcus [38] = test: Antimicrobial activity against methicillin-resistant coagulase negative Staphylococcus P1369 assessed as lethal concentration; assay type: functional
Priestia megaterium = test: Antimicrobial activity against Bacillus megaterium CGMCC 1.0459 assessed as lethal concentration; assay type: functional
Streptococcus sanguinis = test: Antimicrobial activity against Streptococcus sanguinis ATCC 1.2497 assessed as lethal concentration; assay type: functional
Escherichia coli [39] = test: Antimicrobial activity against Escherichia coli DH5alpha assessed as lethal concentration; assay type: functional
[40] = test system: Staphylococcus epidermidis; test: Antimicrobial activity against penicillin-resistant Staphylococcus epidermidis P1389 assessed as lethal concentration; assay type: functional
Ralstonia solanacearum = test: Antimicrobial activity against Ralstonia solanacearum assessed as lethal concentration; assay type: functional

## CC[C@H](C)[C@H](NC(=O)[C@H](CCCCN)NC(=O)[C@H](CC(N)=O)NC(=O)[C@H](CC(N)=O)NC(=O)[C@H](CS)NC(=O)[C@H](Cc1ccc(O)cc1)NC(=O)[C@H](CS)NC(=O)[C@@H](NC(=O)[C@H](C)N)[C@@H](C)O)C(=O)N[C@@H](CS)C(=O)N[C@H](C(=O)N[C@@H](CS)C(=O)N[C@@H](CCCNC(=N)N)C(=O)N[C@@H](CCCNC(=N)N)C(N)=O)C(C)C (H-ATCYCNNKICVCRR-NH2)
Escherichia coli [1]
  LD: 12.9 µM
[2]
  LD: 21.72 µM
Staphylococcus aureus [3]
  LD: 4.62 µM
Staphylococcus aureus [4]
  LD: 3.46 µM
Cell membrane [5]
  Activity: Active
Micrococcus luteus [6]
  Activity: Active
Pseudomonas aeruginosa [7]
  LD: 49.32 µM
Pseudomonas aeruginosa [8]
  LD: 15.38 µM
Streptococcus mutans [9]
  Activity: inactive
Cell membrane [10]
  Activity: Active
Escherichia coli [11]
  LD: 12.9 µM
Escherichia coli [12]
  LD: 7.86 µM
Erythrocyte
  Activity: Non-Toxic
[13]
  Retention_time: 14.5 min
Bacillus subtilis
  LD: 2.6 µM
[14]
  Stability: Stable
Salmonella enterica [15]
  Activity: Active
HEK293
  Activity: Non-Toxic
Streptococcus salivarius
  LD: 2.51 µM
Streptococcus mutans [16]
  LD: 3.22 µM
Escherichia coli [17]
  LD: 7.86 µM
Curtobacterium luteum
  LD: 0.87 µM
[18]
  solubility: Soluble
Pseudomonas aeruginosa [19]
  LD: 7.32 µM
Pseudomonas aeruginosa [20]
  LD: 21.95 µM
Pseudomonas aeruginosa [21]
  LD: 22.87 µM
[22]
  solubility: Soluble
Micrococcus luteus [23]
  LD: 2.6 µM
Alcaligenes faecalis
  LD: 10.4 µM
Staphylococcus warneri
  LD: 4.17 µM
Staphylococcus aureus [24]
  LD: 1.17 µM
Cell membrane [25]
  Activity: Active
Staphylococcus [26]
  Activity: Active
Komagataella pastoris
  LD: 7.86 µM
Geotrichum candidum
  LD: 9.62 µM
Pseudomonas aeruginosa [27]
  LD: 35.1 µM
[28]
  LD: 0.63 µM
Pseudomonas aeruginosa [29]
  LD: 21.42 µM
Escherichia coli [30]
  LD: 7.14 µM
Salmonella enterica [31]
  LD: 4.88 µM
Cell membrane [32]
  Activity: Active
Micrococcus luteus [33]
  Activity: Active
Pseudomonas aeruginosa [34]
  LD: 43.43 µM
Staphylococcus aureus [35]
  LD: 7.01 µM
Pseudomonas aeruginosa [36]
  LD: 35.1 µM
Pseudomonas aeruginosa [37]
  LD: 75.89 µM
Staphylococcus [38]
  LD: 0.27 µM
Priestia megaterium
  LD: 1.23 µM
Streptococcus sanguinis
  LD: 2.58 µM
Escherichia coli [39]
  LD: 21.42 µM
[40]
  LD: 12.79 µM
Ralstonia solanacearum
  LD: 17.5 µM
